According to patent US12194029B1, “Ethyl-1-(substitutedbenzoyl)-5-methylpyrrolo[1,2-a]quinoline-3-carboxylates as anticancer agents” (KING FAISAL UNIVERSITY, priority 2023, dated 2025):

Experiments:
[1] = tested on: adeno carcinomic human alveolar basal epithelial cell line (A-549); assay: MTT cell viability / in vitro cytotoxicity assay, A-549; format: cell-based; conditions: A549, A-549 cells, 48 h incubation, read-out: anticancer IC50 A-549
Method: (§1) The human breast cancer cell line (MCF-7), and adeno carcinomic human alveolar basal epithelial cell line (A-549), were used in the present study for the investigation of cell viability assay of the synthesized compounds.
(§2) The cells were seeded in a 96-well flat-bottom microplate and maintained at 37° C. in 95% humidity and 5% CO2 overnight. The microplates were then treated with different concentrations (5-100 μM) of the samples. The cells were incubated for another 48 h. The wells were washed twice with PBS and 20 μL of the MTT staining solution was added to each well and the plate was incubated at 37° C. After 4 h, 100 μL of DMSO was added to each well to dissolve the formazan crystals and absorbance was recorded with a 570 nm using a microplate reader.
(§3) In vitro cytotoxicity was performed by 3-(4,5-dimethylthiazol-2-yl)-2,5-di-phenyltetrazolium bromide (MTT) assay. Tested compounds were dissolved in DMSO by heating at 95° C. for 10 min, cooled at room temperature and final stock concentration of 1 mg/mL was prepared in DMEM (final DMSO concentration was <1%). The stock solutions were serially diluted to obtain the concentration range of 25 to 400 μM using DMEM, and cells were treated in triplicates. Untreated cells represented a control group and pac. treated as a positive control. After 48 h of incubation, the media was aspirated, 100 μL MTT (1 mg/mL) was added to each well and the plate was incubated at 37° C. for 4 h. After incubation, the media/MTT solution was aspirated and 100 μL DMSO was added to all the wells. Using a multi-mode microplate reader, a uniform shaking (for 5 min) was applied to dissolve Formazan crystals and the absorbance was recorded at 570 nm. Cell viability was calculated using the following equation: […]
(§4) The 50% […] inhibitory concentration (IC50) was determined using Prism software version 7. Using graph Pad Prism Version 5.1, IC50 values of the compounds were calculated.
(§5) Statistical analysis of the cytotoxicity data was performed on GraphPad Prism. All cytotoxicity experiments were conducted in triplicates. Results were analyzed as the standard error of the mean (SEM) and one-way analysis of variance (ANOVA) and the Dunnet multiple comparison test was used to evaluate the treated groups and the control. Further Bonferroni post-tests were performed for comparison of the complex with cis-platin. Differences were considered significant when p<0.05.

[2] = tested on: human breast cancer cell line (MCF-7); assay: MTT cell viability / in vitro cytotoxicity assay, MCF-7; format: cell-based; conditions: MCF7, MCF-7 cells, 48 h incubation, read-out: anticancer IC50 MCF-7
Method: as §1, §2, §3, §4, §5

| SMILES | IC50 [1] [nM] | IC50 [2] [nM] |
| --- | --- | --- |
| COC(=O)c1c(C(=O)OC)c2cc(C)c3ccccc3n2c1C(=O)c1ccccc1[N+](=O)[O-] [Compound 3c, Dimethyl-5-methyl-1-(2-nitrobenzoyl)pyrrolo[1,2-a]quinoline-2,3-dicarboxylate] | 316 | 15 |
| CCOC(=O)c1cc(C(=O)c2ccccc2[N+](=O)[O-])n2c1cc(C)c1ccccc12 [Compound 3d, Ethyl-5-methyl-1-(2-nitrobenzoyl)pyrrolo[1,2-a]quinoline-3-carboxylate] | 291 | 85 |
| COC(=O)c1c(C(=O)OC)c2cc(C)c3ccccc3n2c1C(=O)c1cc(C(F)(F)F)cc(C(F)(F)F)c1 [Compound 3a, Dimethyl-1-(3,5-bis(trifluoromethyl)benzoyl)-5-methylpyrrolo[1,2-a]quinoline-2,3-dicarboxylate] | 433 | 272 |
| COC(=O)c1c(C(=O)OC)c2cc(C)c3ccccc3n2c1C(=O)c1ccc(F)cc1 [Compound 3i, Dimethyl-1-(4-fluorobenzoyl)-5-methylpyrrolo[1,2-a]quinoline-2,3-dicarboxylate] | 183 | 209 |
| CCOC(=O)c1cc(C(=O)c2cc(C(F)(F)F)cc(C(F)(F)F)c2)n2c1cc(C)c1ccccc12 [Compound 3b, Ethyl-1-(3,5-bis(trifluoromethyl)benzoyl)-5-methylpyrrolo[1,2-a]quinoline-3-carboxylate] | 99 | 27 |
